This note sets out measurements from ChEMBL document CHEMBL4811221, “Diosgenin Derivatives as Potential Antitumor Agents: Synthesis, Cytotoxicity, and Mechanism of Action” (J Nat Prod, 2021).

pIC50: −log10 of the molar value. The source made the active and inactive calls. The rule behind the calls is not given here.

One experiment deals with A549. The experiment is described as follows: Cytotoxicity against human A549 cells assessed as cell growth inhibition measured after 24 hrs by MTT assay. The note with it: A549, 24 h. The experiment is classed as functional, cell-based. On the technique in general: Tetrazolium dyes change colour on reduction, which living cells bring about.
Experiment [1] deals with HepG2. Put plainly: Induction of apoptosis in human HepG2 cells assessed as early apoptotic cells at 4 uM measured after 24 hrs by annexinV-FITC/propidium iodide staining based flow cytometry (reference value: 2.03 %). The format is functional. In general terms: A flow cytometer gives signals particle by particle.
The subject of experiment [2] is HepG2. The experiment is described as follows: Induction of apoptosis in human HepG2 cells assessed as necrotic cells at 8 uM measured after 24 hrs by annexinV-FITC/propidium iodide staining based flow cytometry (reference value: 0.77 %). The experiment is classed as functional.
Experiment [3] has as its system HepG2. The experiment is described as follows: Cell cycle arrest in human HepG2 cells assessed as accumulation at S phase at 4 uM measured after 24 hrs by RNaseA/propidium iodide staining based flow cytometry (reference value: 24.3 %). The format is functional.
Experiment [4] has as its system HepG2. The experiment is described as follows: Induction of apoptosis in human HepG2 cells assessed as formation of apoptotic bodies at 4 to 8 uM by fluorescent microscopic analysis. The experiment is classed as functional, cell-based. Particulars: dose 4-8 µM.
The next experiment relates to L02. Put plainly: Cytotoxicity against human L02 cells assessed as cell growth inhibition measured after 24 hrs by MTT assay. The format is cell-based. The note with it: L02, 24 h.
Experiment [5] concerns HepG2. The experiment is described as follows: Induction of apoptosis in human HepG2 cells assessed as late apoptotic cells at 4 uM measured after 24 hrs by annexinV-FITC/propidium iodide staining based flow cytometry (reference value: 5.45 %). The format is functional.
Experiment [6] concerns HepG2. The experiment is described as follows: Cytotoxicity against human HepG2 cells assessed as cell growth inhibition measured after 24 hrs by MTT assay. The experiment is classed as functional, cell-based. Particulars: HepG2, 24 h.
Experiment [7] has as its system HepG2. The experiment is described as follows: Induction of apoptosis in human HepG2 cells assessed as membrane blebbing at 4 to 8 uM by fluorescent microscopic analysis. The note with it: dose 4-8 µM. The format is functional, cell-based.
The subject of experiment [8] is HepG2. The experiment is described as follows: Induction of apoptosis in human HepG2 cells assessed as discernible cell rounding at 4 to 8 uM by fluorescent microscopic analysis. The experiment is classed as functional, cell-based. Particulars: dose 4-8 µM.
Experiment [9] relates to HepG2. The experiment is described as follows: Induction of apoptosis in human HepG2 cells assessed as necrotic cells at 4 uM measured after 24 hrs by annexinV-FITC/propidium iodide staining based flow cytometry (reference value: 0.77 %). The format is functional.
For experiment [10], the system named is HepG2. Put plainly: Induction of apoptosis in human HepG2 cells assessed as live cells at 8 uM measured after 24 hrs by annexinV-FITC/propidium iodide staining based flow cytometry (reference value: 91.7 %). The format is functional.
The next experiment has as its system MCF7. Put plainly: Cytotoxicity against human MCF7 cells assessed as cell growth inhibition measured after 24 hrs by MTT assay. The format is functional, cell-based. Particulars: MCF7, 24 h.
In experiment [11] the test system is HepG2. Put plainly: Cell cycle arrest in human HepG2 cells assessed as accumulation at G2/M phase at 4 uM measured after 24 hrs by RNaseA/propidium iodide staining based flow cytometry (reference value: 22.9 %). The experiment is classed as functional.
Experiment [12] relates to HepG2. Put plainly: Induction of apoptosis in human HepG2 cells assessed as live cells at 4 uM measured after 24 hrs by annexinV-FITC/propidium iodide staining based flow cytometry (reference value: 91.7 %). The format is functional.
In experiment [13] the test system is HepG2. The experiment is described as follows: Cell cycle arrest in human HepG2 cells assessed as accumulation at G0/G1 phase at 8 uM measured after 24 hrs by RNaseA/propidium iodide staining based flow cytometry (reference value: 49.3 %). The format is functional.
For experiment [14], the system named is HepG2. Put plainly: Induction of apoptosis in human HepG2 cells assessed as early apoptotic cells at 8 uM measured after 24 hrs by annexinV-FITC/propidium iodide staining based flow cytometry (reference value: 2.03 %). The experiment is classed as functional.
For experiment [15], the system named is HepG2. Put plainly: Cell cycle arrest in human HepG2 cells assessed as accumulation at G2/M phase at 8 uM measured after 24 hrs by RNaseA/propidium iodide staining based flow cytometry (reference value: 22.9 %). The format is functional.
The test system of experiment [16] is HepG2. The experiment is described as follows: Induction of apoptosis in human HepG2 cells assessed as late apoptotic cells at 8 uM measured after 24 hrs by annexinV-FITC/propidium iodide staining based flow cytometry (reference value: 5.45 %). The experiment is classed as functional.
Experiment [17] deals with HepG2. Put plainly: Cell cycle arrest in human HepG2 cells assessed as accumulation at S phase at 8 uM measured after 24 hrs by RNaseA/propidium iodide staining based flow cytometry (reference value: 24.3 %). The experiment is classed as functional.
The subject of experiment [18] is HepG2. The experiment is described as follows: Induction of apoptosis in human HepG2 cells assessed as cell shrinkage at 4 to 8 uM by fluorescent microscopic analysis. The experiment is classed as functional, cell-based. The note with it: dose 4-8 µM.
Experiment [19] relates to HepG2. The experiment is described as follows: Cell cycle arrest in human HepG2 cells assessed as accumulation at G0/G1 phase at 4 uM measured after 24 hrs by RNaseA/propidium iodide staining based flow cytometry (reference value: 49.3 %). The experiment is classed as functional.

By pIC50 is commonly meant the IC50 on a negative log10 scale, so that one unit is a factor of ten. `C[C@@H]1CC[C@@]2(OC1)O[C@H]1C[C@H]3[C@@H]4CC=C5C[C@@H](OC(=O)CCC(=O)N6CCNCC6)CC[C@]5(C)[C@H]4CC[C@]3(C)[C@H]1[C@@H]2C`: the pIC50 was 5.62 with A549, 4.73 in the experiment on L02, 5.72 with HepG2 [6] and 5.55 in the experiment with MCF7. Moreover, the Activity in the experiment with HepG2 [1] worked out at 6.08%; with HepG2 [2], 0.18%; in the experiment with HepG2 [3] it was 21.5%; in the experiment on HepG2 [5], 5.12%; with HepG2 [9], 0.093%; in the experiment on HepG2 [10], 78.7%. The Activity in the experiment with HepG2 [11] came to 18.6%; with HepG2 [12] it was 88.7%; in the experiment with HepG2 [13] it was 64.2%; in the experiment on HepG2 [14], 13.2%; in the experiment with HepG2 [15] it was 17.3%; in the experiment on HepG2 [16], 7.85%. For the same molecule, the values for the Activity with HepG2 [17] and in the experiment on HepG2 [19] were 17.5% and 57.4%, respectively. Moreover, the result in the experiment on HepG2 [4], in the experiment on HepG2 [7], in the experiment with HepG2 [8] and with HepG2 [18] was Active.

Regarding `C[C@@H]1CC[C@@]2(OC1)O[C@H]1C[C@H]3[C@@H]4CC=C5C[C@@H](OC(=O)c6ccccc6C(=O)N6CCNCC6)CC[C@]5(C)[C@H]4CC[C@]3(C)[C@H]1[C@@H]2C`, the pIC50 in the experiment on A549 is 5.14; in the experiment with L02, 4.56; in the experiment on HepG2 [6], 5.12; in the experiment on MCF7, 5.09.

As for `Cc1ccc(C[N+]2(Cc3ccc(C)cc3)CCN(C(=O)CCC(=O)O[C@H]3CC[C@@]4(C)C(=CC[C@H]5[C@@H]6C[C@@H]7O[C@]8(CC[C@@H](C)CO8)[C@@H](C)[C@@H]7[C@@]6(C)CC[C@@H]54)C3)CC2)cc1`, the pIC50 in the experiment on A549 is 5.44; in the experiment on L02, 4.74; in the experiment with HepG2 [6], 5.21; in the experiment with MCF7, below 5.00.

Regarding `COc1ccc(C[N+]2(Cc3ccc(OC)cc3)CCN(C(=O)CCC(=O)O[C@H]3CC[C@@]4(C)C(=CC[C@H]5[C@@H]6C[C@@H]7O[C@]8(CC[C@@H](C)CO8)[C@@H](C)[C@@H]7[C@@]6(C)CC[C@@H]54)C3)CC2)cc1`, the pIC50 in the experiment on A549 was 5.24; in the experiment with L02 it was 4.63; in the experiment with HepG2 [6] it was 5.00; with MCF7, 5.03.
